Data from patent US20060052384A1, “Aryl piperidine derivatives as inducers of ldl-receptor expression for the treatment of hypercholesterolemia” (priority 2002, published 2006).

Key:
[1] = system: LDL-r promoter and the luciferase reporter gene in HepG2 cells; experiment: In vitro assay: induction of luciferase activity in HepG2 cells stably transfected with LDL-r promoter/luciferase reporter construct; format: cell-based; conditions: Homo sapiens, 24 hours incubation, RPMI medium with 2% lipoprotein-deficient serum, tested 10^-6M to 10^-9M
Protocol: HepG2 cells, stably transfected with a construct comprising the LDL-r promoter and the luciferase reporter gene, were seeded at 50,000 cells/well in 96 well plates. After 1 day cells were incubated with compounds for 24 hours in RPMI medium containing 2% of lipoprotein-deficient serum. Compounds were tested from 10^−6M to 10^−9M. Cell lysates were prepared and the luciferase activity was measured by the luciferase assay system (Promega). Induction of luciferase activity was calculated taking untreated cells as control. The ED50 of each compounds was determined compared to the ED50 of an internal standard.

EC50 [1] [nM]	melting point [°C]	SMILES
–	170	COc1c(C2CCN(CCCCNC(=O)c3ccc(-c4ccc(C(=O)N(C)C)cc4)cc3)CC2)ccc2c1CCCC2 [Example 19]
–	216 to 218	COc1c(C2CCN(CCCCNC(=O)c3ccc(-c4ccc(C(C)=O)s4)cc3)CC2)ccc2c1CCCC2 [Example 20, 4-(5-Acetyl-thiophen-2-yl)-N-{4-[4-(1-methoxy-5,6,7,8-tetrahydro-naphthalen-2-yl)-piperidin-1-yl]-butyl}-benzamide]
–	182 to 184	COc1c(C2CCN(CCCCNC(=O)c3ccc(-c4ccc(NS(=O)(=O)CC(F)(F)F)cc4)cc3)CC2)ccc2c1CCCC2 [Example 22, 4′-(2,2,2-Trifluoro-ethanesulfonylamino)-biphenyl4-carboxylic acid {4-[4-(1-methoxy 5,6,7,8-tetrahydro-naphthalen-2-yl)-piperidin-1-yl]-butyl}-amide]
–	188 to 190	COc1c(C2CCN(CCCCNC(=O)c3ccc(-c4ccc(NS(=O)(=O)C(C)C)cc4)cc3)CC2)ccc2c1CCCC2 [Example 24]
–	197 to 199	COc1c(C2CCN(CCCCNC(=O)c3ccc(-c4ccc(C(=O)C(F)(F)F)cc4)cc3)CC2)ccc2c1CCCC2 [Example 26, 4′-(2,2,2-Trifluoro-acetyl)-biphenyl-4-carboxylic acid {4-[4-(1-methoxy-5,6,7,8-tetrahydro-naphthalen-2-yl)-piperidin-1-yl]-butyl}-amide]
–	226 to 228	COc1c(C2CCN(CCCCNC(=O)c3ccc(-c4ccc(NC(=O)C(F)(F)F)cc4)cc3)CC2)ccc2c1CCCC2 [Example 29, 4′-(2,2,2-Trifluoro-acetylamino)-biphenyl-4-carboxylic acid {4-[4-(1-methoxy-5,6,7,8-tetrahydro-naphthalen-2-yl)-piperidin-1-yl]-butyl}-amide]
–	208 to 210	COc1c(C2CCN(CCCCNC(=O)c3ccc(-c4csc(C(C)=O)c4)cc3)CC2)ccc2c1CCCC2 [Example 33, 4-(5-Acetyl-thiophen-3-yl)-N-{4-[4-(1-methoxy-5,6,7,8-tetrahydro-naphthalen-2-yl)-piperidin-1-yl]-butyl}-benzamide]
–	202 to 204	COc1c(C2CCN(CCCCNC(=O)c3ccc(-c4ccc(Cl)nc4)cc3)CC2)ccc2c1CCCC2 [Example 34]
–	179 to 181	COc1c(C2CCN(CCCCNC(=O)c3ccc(-c4ccc(C#N)nc4)cc3)CC2)ccc2c1CCCC2 [Example 43, 4-(6-Cyano-pyridin-3-yl)-N-{4-[4-(1-methoxy-5,6,7,8-tetrahydro-naphthalen-2-yl)-piperidin-1-yl]-butyl}-benzamide]

More lines, now with the values behind:

SMILES	EC50 [1] [nM]	melting point [°C]
Cn1cc(C2CCN(CCCCNC(=O)c3ccc(-c4ccc(C(F)(F)F)cc4)c(CO)c3)CC2)c2ccccc21 [Example 1]	7	–
CCOc1cc(CC)ccc1C1CCN(CCCCNC(=O)c2sc(-c3ccc(C(F)(F)F)cc3)nc2CO)CC1 [Example 4, 4-Hydroxymethyl-2-(4-trifluoromethyl-phenyl)-thiazole-5-carboxylic acid {4-[4-(2-ethoxy-4-ethyl-phenyl)-piperidin-1-yl]-butyl}-amide]	–	150
COc1c(C2CCN(CCCCNC(=O)c3sc(-c4ccc(C#N)cc4)nc3CO)CC2)ccc2c1CCCC2 [Example 7, 2-(4-Cyano-phenyl)-hydroxymethyl-thiazole-5-carboxylic acid {4-[4-(1-methoxy-5,6,7,8-tetrahydro-naphthalen-2-yl)-piperidin-1-yl]-butyl}-amide]	–	212
COc1c(C2CCN(CCCCNC(=O)c3sc(-c4ccc(Cl)cc4)nc3C)CC2)ccc2c1CCCC2 [Example 12, 2-(4-Chloro-phenyl)4-methyl-thiazole-5-carboxylic acid {4-[4-(1-methoxy-5,6,7,8-tetrahydro-naphthalen-2-yl)-piperidin-1-yl]-butyl}-amide]	–	151
COc1c(C2CCN(CCCCNC(=O)c3[nH]nc(-c4ccc(C#N)cc4)c3CO)CC2)ccc2c1CCCC2 [Example 14]	–	185 to 186
COc1c(C2CCN(CCCCNC(=O)c3oc(-c4ccc(C#N)cc4)nc3C)CC2)ccc2c1CCCC2 [Example 15, 2-(4-Cyano-phenyl)-4-methyl-oxazole-5-carboxylic acid {4-[4-(1-methoxy-5,6,7,8-tetrahydro-naphthalen-2-yl)-piperidin-1-yl]-butyl}amide]	–	157
COc1c(C2CCN(CCCCNC(=O)c3oc(-c4ccc(C#N)cc4)nc3CO)CC2)ccc2c1CCCC2 [Example 16, 2-(4-Cyano-phenyl)-4-hydroxymethyl-oxazole-5-carboxylic acid {4-[4-(1-methoxy-5,6,7,8-tetrahydro-naphthalen-2-yl)-piperidin-1-yl]-butyl}-amide]	–	160 to 162
COc1c(C2CCN(CCCCNC(=O)c3ccc(-c4ccc(Cl)s4)cc3)CC2)ccc2c1CCCC2 [Example 23, 4-(5-Chloro-thiophen-2-yl)-N-{4-[4-(1-methoxy-5,6,7,8-tetrahydro-naphthalen-2-yl)-piperidin-1-yl]-butyl}-benzamide]	–	185 to 187
COc1c(C2CCN(CCCCNC(=O)c3ccc(-c4ccc(Cl)cc4)c(O)c3)CC2)ccc2c1CCCC2 [Example 25]	–	199
COc1c(C2CCN(CCCCNC(=O)c3ccc(-c4ccc(C#N)cn4)cc3)CC2)ccc2c1CCCC2 [Example 30, 4-(5-Cyano-pyridin-2-yl)-N-{4-[4-(1-methoxy-5,6,7,8-tetrahydro-naphthalen-2-yl)-piperidin-1-yl]-butyl}-benzamide]	–	220 to 222
COc1c(C2CCN(CCCCNC(=O)c3ccc(-c4ccsc4C#N)cc3)CC2)ccc2c1CCCC2 [Example 31, 4-(2-Cyano-thiophen-3-yl)-N-{4-[4-(1-methoxy-5,6,7,8-tetrahydro-naphthalen-2-yl)-piperidin-1-yl]-butyl}-benzamide]	–	236 to 238
COc1c(C2CCN(CCCCNC(=O)c3ccc(-c4ccc(Cl)cn4)cc3)CC2)ccc2c1CCCC2 [Example 32, 4-(5-Chloro-pyridin-2-yl)-N-{4-[4-(1-methoxy-5,6,7,8-tetrahydro-naphthalen-2-yl)-piperidin-1-yl]-butyl}-benzamide]	10	213 to 215
COc1c(C2CCN(CCCCNC(=O)c3ccc(-c4ccc(Cl)nn4)cc3)CC2)ccc2c1CCCC2 [Example 35, 4-(6-Chloro-pyridazin-3-yl)-N-{4-[4-(1-methoxy-5,6,7,8-tetrahydro-naphthalen-2-yl)-piperidin-1-yl]-butyl}-benzamide]	–	192 to 194
COc1c(C2CCN(CCCCNC(=O)c3ccc(-c4ccc(C#N)o4)cc3)CC2)ccc2c1CCCC2 [Example 36]	–	180 to 182
COc1c(C2CCN(CCCCNC(=O)c3ccc(-c4ccc(Cl)cc4)cn3)CC2)ccc2c1CCCC2 [Example 37, 5-(4-Chloro-phenyl)-pyridine-2-carboxylic acid {4-[4-(1-methoxy-5,6,7,8-tetrahydro-naphthalen-2-yl)piperidin-1-yl]-butyl}-amide]	–	103 to 105
COc1c(C2CCN(CCCCNC(=O)c3ccc(-c4ccc(Cl)cc4)nc3)CC2)ccc2c1CCCC2 [Example 38, 6-(4-Chloro-phenyl)-N-{4-[4-(1-methoxy-5,6,7,8-tetrahydro-naphthalen-2-yl)-piperidin-1-yl]-butyl}-nicotinamide]	–	184 to 186
COc1c(C2CCN(CCCCNC(=O)c3ccc(-c4ccc(C#N)cc4)nc3)CC2)ccc2c1CCCC2 [Example 39, 6-(4-Cyano-phenyl)-N-{4-[4-(1-methoxy-5,6,7,8-tetrahydro-naphthalen-2-yl)-piperidin-1-yl]-butyl}-nicotinamide]	–	166 to 168
COc1c(C2CCN(CCCCNC(=O)c3ccc(-c4ccc(Cl)s4)nc3)CC2)ccc2c1CCCC2 [Example 40, 6-(5-Chloro-thiophen-2-yl)-N-{4-[4-(1-methoxy-5,6,7,8-tetrahydro-naphthalen-2-yl)-piperidin-1-yl]-butyl}-nicotinamide]	–	175 to 177
COc1c(C2CCN(CCCCNC(=O)c3ccc(-c4ccc(C#N)cc4)cn3)CC2)ccc2c1CCCC2 [Example 41, 5-(4-Cyano-phenyl)-pyridine-2-carboxylic acid {4-[4-(1-methoxy-5,6,7,8-tetrahydro-naphthalen-2-yl)-piperidin-1-yl]-butyl}-amide]	–	140
COc1c(C2CCN(CCCCNC(=O)c3ccc(-c4ccc(C#N)s4)nc3)CC2)ccc2c1CCCC2 [Example 42, 6-(5-Cyano-thiophen-2-yl)-N-{4-[4-(1-methoxy-5,6,7,8-tetrahydro-naphthalen-2-yl)-piperidin-1-yl]-butyl}-nicotinamide]	–	186 to 188
COc1c(C2CCN(CCCCNC(=O)c3ccc(-c4cnc(C#N)nc4)cc3)CC2)ccc2c1CCCC2 [Example 44, 4-(2-Cyano-pyrimidin-5-yl)-N-{4-[4-(1-methoxy-5,6,7,8-tetrahydro-naphthalen-2-yl)-piperidin-1-yl]-butyl}-benzamide]	–	202
